# From patent publication US8557859B2, “Immunomodulatory compositions” (Summit (Wales) Limited, priority 2003, dated 2013)
# Tests used:
# Dendritic cells = assay: Induction of IL-12 secretion in dendritic cells (ELISA); format: cell-based, BALB/c mice; conditions: dendritic cells; compounds 50 μg/ml and 20 μg/ml, 24 hrs (or 48 hrs)
# Description: BALB/c male and female mice bred and maintained at the University of Strathclyde under conventional conditions were used at 8 weeks old.
# Bone marrow was obtained from the femurs of mice. The femurs were washed in 70% ethanol and placed in a clean petri dish. Dendritic cell (DC) medium (2.5% granulocyte-macrophage colony-stimulating factor (GM-CSF), 10% […] foetal calf serum, 1% L-glutamine, 1% Penicillin/Streptomycin in RPMI-1640 medium) was injected into the bone marrow of the femur by a pumping action and the cells and medium were collected. 1 ml of the cells in medium was added to a 75 cm^2 flask with 15 mls of DC medium. The flasks were then incubated at 37° C., 5% CO2 to allow DC growth and development. After 5 days an additional 10 mls of DC medium was added.
# After 10 days of incubation of bone marrow with GM-CSF, the dendritic cells were harvested. This process was carried out in a tissue culture hood. The contents of the flasks were poured into centrifuge tubes to ensure collection of floating DCs. Approximately 10 mls of cooled phosphate buffered saline (PBS) was added to each empty flask, the flasks gently agitated and the contents collected. […] The collected contents of the flasks were centrifuged for 5 minutes at 200 g and the pellet resuspended in 2 mls of DC medium without GM-CSF. A cell count was then carried out.
# Cells were counted using a haemocytometer. Approximately 20 μl of the resuspended cells was pipetted into the chamber of the haemocytometer, the cells were adjusted to the correct cell concentration (approx. 5×10^4, and not less than 1×10^4, per well) and then plated out for assay.
# The plates were incubated overnight at 37° C. with 5% CO2 and allowed to settle (harvesting stimulates them). The next day the compounds (50 μg/ml and 20 μg/ml) and controls were added then again incubated at 37° C. with 5% CO2 for 24 hrs (or 48 hrs). Harvesting and addition of the compounds was all done in a hood. The plates were then frozen to kill the cells and once defrosted the supernatant analysed as described below.
# Using an enzyme linked immunosorbent assay (ELISA) IL-12 concentration in the supernatants was measured. All reagents used in this assay were from PharMingen. A 96-well flat-bottomed ELISA plate was coated with purified rat anti-mouse IL-12 (p40/p70) MAb (Cat no. 554478) at 2 μg/ml diluted in PBS pH 9.0 at 50 μl/well. The plate was then covered in cling film and incubated at 4° C. Following incubation the plate was washed 3 times in washing buffer and dried. 200 μl of blocking buffer (10% foetal calf serum in PBS pH 7.0) was added to each well then covered in cling film and incubated at 37° C. for 45 minutes. The plate was washed 3 times and dried. Recombinant mouse Il-12 standard was added at 30 μl in duplicate wells, starting at 10 ng/ml then 5, 2.5, 1.25, 0.625, 0.31, 0.156, 0.078, 0.039, 0.020, 0.010, 0.005 ng/ml. Standards were diluted in blocking buffer. The supernatant samples were added in at 50 μl/well. The plate was then covered in cling film and incubated for 2 hours at 37° C. The plate was then washed 4 times, dried and the secondary antibody added.
# Biotin labelled anti-mouse IL-12 (p40/p70) MAb (Cat no. 18482D) at 1 μg/ml (diluted in blocking buffer) was added to each well at a volume of 100 μl/well. The plate was covered in cling film and incubated at 37° C. for 1 hour. The plate was then washed 5 times, dried and the conjugate added. Streptavidin-AKP (Cat no. 13043E) at 100 μl/well was added at a dilution of 1/2000 in blocking buffer followed by incubation under cling film at 37° C. for 45 minutes.
# The plate was finally washed 6 times, dried and the substrate added. pNPP (Sigma) in glycine buffer at 1 mg/ml was added at 100 μl/well. The plate was then covered in tinfoil, incubated at 37° C. and checked every 30 minutes for a colour change.
# The plate was then read at 405 nm using a SPECTRAmax 190 spectrometer.
# Spleen cells = assay: Cytokine modulation in spleen cells: splenocyte IFN-γ production; format: cell-based, BALB/c mice; conditions: result in words
# Description: BALB/c male and female mice bred and maintained at the University of Strathclyde under conventional conditions were used at varying age.
# The mouse spleen was removed aseptically and placed in a sterile petri dish containing 5 mls of complete medium (RPMI, 1% L-Glutamine, 1% Penicillin/Streptomycin and 10% foetal calf serum). Cells suspensions were prepared by using the end of a syringe and grinding the spleen through a wire mesh. The cell suspension was then centrifuged at 1000 rpm for 5 minutes. To remove the erythrocytes, the cell pellet was resuspended in Boyle's solution (Tris 0.17M & Ammonium Chloride 0.16M) and centrifuged again for 5 minutes. The pellet was then washed in medium a further two times, then resuspended in 3 mls medium. A cell count was then carried out.
# All spleen cell experiments were carried out in 96-well tissue culture plates. […] Unstimulated wells contained 100 μl of cells and 100 μl of medium. The stimulated wells contained 100 μl of cells plus 50 μl of LPS at 1 μg/ml or 50 μl anti-CD3 at 0.5 μg/ml and 50 μl of medium. The remaining wells contained 100 μl cells, 50 μl of MNLP compound and either 50 μl of anti-CD3 or medium alone.
# The appropriate Mabs and standards were used according to the protocol described for IL-12 (described in Example 1, above).
# α-D-glucosidase = assay: Glycosidase inhibition, α-D-glucosidase (Bacillus); format: biochemical, Bacillus stearothermophilus; conditions: 1 mg/ml
# Description: (§1) All enzymes were purchased from Sigma, as were the appropriate p-nitrophenyl substrates. Assays were carried out in microtitre plates. Enzymes were assayed in 0.1 M citric acid/0.2M di-sodium hydrogen phosphate (McIlvaine) buffers at the optimum pH for the enzyme. All assays were carried out at 20° C. For screening assays the incubation assay consisted of 10 μl of enzyme solution, 10 μl of inhibitor solution (made up in water) and 50 μl of the appropriate 5 mM p-nitrophenyl substrate (3.57 mM final conc.) made up in McIlvaine buffer at the optimum pH for the enzyme.
# (§2) The reactions were stopped with 0.4M glycine (pH 10.4) during the exponential phase of the reaction, which was determined at the beginning of the assay using blanks with water, which were incubated for a range of time periods to measure the reaction rate using 5 mM substrate solution. Endpoint absorbances were read at 405 nm with a Biorad microtitre plate reader (Benchmark). Water was substituted for the inhibitors in the blanks.
# β-D-glucosidase = assay: Glycosidase inhibition, β-D-glucosidase; format: biochemical, Almonds (Prunus sp.); conditions: 1 mg/ml
# Description: as §1, §2
# β-D-galactosidase = assay: Glycosidase inhibition, β-D-galactosidase; format: biochemical, Bovine liver; conditions: 1 mg/ml; second galactosidase line
# Description: as §1, §2
# Naringinase = assay: Glycosidase inhibition, Naringinase; format: biochemical, Penecillium decumbens; conditions: 1 mg/ml
# Description: as §1, §2
# [1] = test system: N-acetyl-β-D-glucosaminidase; assay: Glycosidase inhibition, N-acetyl-β-D-glucosaminidase; format: biochemical, Bovine kidney; conditions: 1 mg/ml
# Description: as §1, §2
# B16-F10 tumour cells = assay: Control of lung metastasis in mice; format: in vivo, Mice (C57/bl6); conditions: 50 mg/kg s/c on days 2 and 4; lungs on day 14
# Description: Mice (C57/bl6 under i/p ketamine anaesthesia) were challenged i/v (tail vein) with 5×10^4 B16-F10 tumour cells in a final volume of 100 μl per mouse on day 0. Test compounds (50 mg/kg in 200 μl sterile non-pyrogenic saline) were administered s/c (right flank) on days 2 and 4. On day 14 the mice were sacrifices and the lungs dissected and stained in Indian ink solution (150 ml bidistilled water, 30 ml India Ink, 4 drops NH4OH) for 10 minutes then fixed for at least 24 hr in Fakete's solution (90 ml 37% formaldehyde, 900 ml 70% EtOH and 45 ml glacial acetic acid). The metastases in the stained and fixed lungs could then be visualized, counted and photographed.
# glycosidase = conditions: see U.S. Pat. No. 5,075,457; cited from earlier work
# HSV-1 (SC16) = assay: Treatment of murine HSV-1 infection: ear pinna thickness; format: in vivo, BALB/c mice; conditions: for Ear pinna thickness (mm^−2): Group 4: via drinking water 1 mg/ml
# [2] = Treatment of murine HSV-1 infection: body weight; format: in vivo, BALB/c mice; conditions: Group 4: via drinking water 1 mg/ml
compound,measurement,setting,value
"OC[C@H]1NC[C@H](O)[C@@H](O)[C@@H]1O [1-Deoxynojirimycin (DNJ) (21), 1-Deoxynojirimycin]",IL-12 RELEASE,Dendritic cells,No
same,IFN-γ secretion/production in splenocytes,Spleen cells,inhibited IFN-γ secretion/production in splenocytes
"OC[C@H]1[C@@H](O)[C@H](O)[C@H]2[C@@H](O)CCN21 [3,7a-diepialexine (23), 3,7a-diepialexine]",IL-12 RELEASE,Dendritic cells,No
"OC[C@H]1[C@@H](O)[C@H](O)[C@H]2[C@H](O)[C@@H](O)CN21 [3-epi-casuarine (14), 3-epi-casuarine]",IL-12 RELEASE,Dendritic cells,Yes
same,% inhibition gluc (Bacillus),α-D-glucosidase,12%
same,% inhibition glucosidase,β-D-glucosidase,56%
same,% inhibition galactosidase,β-D-galactosidase,6%
same,% inhibition Naringinase,Naringinase,21%
same,% inhibition N-acetyl-β-gluc,[1],−1%
same,Metastatic morphology,B16-F10 tumour cells,Metastasis restricted to apical tip of lung
"OC[C@@H]1[C@@H](O)[C@H](O)[C@H]2[C@@H](O)[C@@H](O)CN21 [7-epi-casuarine (11), 7-epi-casuarine]",IL-12 RELEASE,Dendritic cells,Yes
same,% inhibition gluc (Bacillus),α-D-glucosidase,5%
same,% inhibition glucosidase,β-D-glucosidase,30%
same,% inhibition Naringinase,Naringinase,−4%
"OC[C@@H]1[C@@H](O)[C@H](O)[C@H]2[C@@H](O)CCN21 [7-epialexine (22), 7-epialexine]",IL-12 RELEASE,Dendritic cells,No
O[C@H]1[C@H]2[C@@H](O)CCN2C[C@H]1O [7S-epimer (6)],glycosidase inhibitory activity relative to swainsonine,glycosidase,much weaker inhibitory activity relative to swainsonine itself
"O[C@H]1[C@H]2[C@H](O)CCN2C[C@H]1O [(1S,2R,7R,7aR)-1,2,7-trihydroxypyrrolizidine]",glycosidase inhibitory activity relative to swainsonine,glycosidase,much weaker inhibitory activity relative to swainsonine itself
"OC[C@@H]1[C@@H](O)[C@H](O)[C@@H]2[C@@H](O)CCN21 [Alexine (1), Alexine]",IL-12 RELEASE,Dendritic cells,No
"OC[C@H]1[C@@H](O)[C@H](O)[C@H]2[C@@H](O)[C@H](O)CN21 [Compound 12, 3,6,7-triepi-casuarine]",% inhibition gluc (Bacillus),α-D-glucosidase,9%
same,% inhibition glucosidase,β-D-glucosidase,6%
same,% inhibition galactosidase,β-D-galactosidase,6%
same,% inhibition Naringinase,Naringinase,0%
same,% inhibition N-acetyl-β-gluc,[1],19%
"OC[C@H]1[C@@H](O)[C@H](O)[C@@H]2[C@@H](O)[C@H](O)CN21 [Compound 21, 3,6,7,7a-tetraepi-casuarine]",% inhibition gluc (Bacillus),α-D-glucosidase,−2%
same,% inhibition glucosidase,β-D-glucosidase,44%
same,% inhibition galactosidase,β-D-galactosidase,3%
same,% inhibition Naringinase,Naringinase,5%
same,% inhibition N-acetyl-β-gluc,[1],27%
"OC[C@H]1[C@@H](O)[C@H](O)[C@@H]2[C@@H](O)[C@@H](O)CN21 [Compound 22, 3,7,7a-triepi-casuarine]",% inhibition gluc (Bacillus),α-D-glucosidase,87%
same,% inhibition Naringinase,Naringinase,10%
"OCC1O[C@H](O[C@H]2CN3[C@@H]([C@@H](O)[C@H](O)[C@H]3CO)[C@@H]2O)C(O)[C@@H](O)[C@@H]1O (stereo partly drawn) [casuarine-6-α-D-glucopyranose (9), casuarine-6-α-D-glucopyranose]",IL-12 RELEASE,Dendritic cells,Yes
"CC(=O)OCC(CCn1cnc2cnc(N)nc21)COC(C)=O [famciclovir, reference compound]",Ear pinna thickness (mm^−2),HSV-1 (SC16); day 0,0 mm^−2
same,Ear pinna thickness (mm^−2),HSV-1 (SC16); day 1,0 mm^−2
same,Ear pinna thickness (mm^−2),HSV-1 (SC16); day 2,0 mm^−2
same,Ear pinna thickness (mm^−2),HSV-1 (SC16); day 3,7 mm^−2
same,Ear pinna thickness (mm^−2),HSV-1 (SC16); day 4,7 mm^−2
same,Ear pinna thickness (mm^−2),HSV-1 (SC16); day 5,0 mm^−2
same,Ear pinna thickness (mm^−2),HSV-1 (SC16); day 6,4 mm^−2
same,Ear pinna thickness (mm^−2),HSV-1 (SC16); day 7,0 mm^−2
same,Ear pinna thickness (mm^−2),HSV-1 (SC16); day 8,2.9 mm^−2
same,Ear pinna thickness (mm^−2),HSV-1 (SC16); day 9,2.9 mm^−2
same,Ear pinna thickness (mm^−2),HSV-1 (SC16); day 11,2.9 mm^−2
same,Ear pinna thickness (mm^−2),HSV-1 (SC16); day −2,0 mm^−2
same,ear thickness response,"HSV-1 (SC16); result in words, casuarine at both doses (15 and 150 mg/kg i.p.), famciclovir via drinking water 1 mg/ml",almost completely negated the ear thickness response
same,Group mean weight,[2]; day 0,15.1 g
same,Weight (% change),[2]; day 0,9%
same,Group mean weight,[2]; day 1,15.6 g
same,Weight (% change),[2]; day 1,13%
same,Group mean weight,[2]; day 2,15.8 g
same,Weight (% change),[2]; day 2,14.5%
same,Group mean weight,[2]; day 3,16.4 g
same,Weight (% change),[2]; day 3,18.8%
same,Group mean weight,[2]; day 4,16.3 g
same,Weight (% change),[2]; day 4,18.1%
same,Group mean weight,[2]; day 5,16.7 g
same,Weight (% change),[2]; day 5,21%
same,Group mean weight,[2]; day 6,17.1 g
same,Weight (% change),[2]; day 6,23.9%
same,Group mean weight,[2]; day 7,16.7 g
same,Weight (% change),[2]; day 7,21%
same,Group mean weight,[2]; day 8,17.1 g
same,Weight (% change),[2]; day 8,23.9%
same,Group mean weight,[2]; day 9,17.1 g
same,Group mean weight,[2]; day 10,17.2 g
same,Group mean weight,[2]; day 11,17.1 g
same,Group mean weight,[2]; day 12,17.2 g
same,Group mean weight,[2]; day −2,13.8 g
same,Weight (% change),[2]; day −2,0%
